Measured values taken from patent US9302999B2, “Substituted triazoles as herbicides” (E. I. DU PONT DE NEMOURS AND COMPANY, priority 2012, dated 2016).
Where two headings read alike, the source gives them in different places.

Columns and labels:
Format in all cases: in vivo
[1] = system: velvetleaf (Abutilon theophrasti); test: Test A pre-/postemergence: velvetleaf; settings: Abutilon theophrasti, 240 h; for pest or weed control at 125 g/ha: 125 g ai/ha; for pest or weed control at 500 g/ha: 500 g ai/ha
Procedure, shortened: (§1)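 Pre: directed soil spray after planting in loam + sand. Post: same formulation (non-phytotoxic solvent + surfactant) on 1–2-leaf plants, 2–10 cm. Greenhouse ~10 d; visual injury 0–100 vs untreated.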

[2] = system: foxtail, giant (giant foxtail, Setaria faberii); test: Test A pre-/postemergence: foxtail, giant; settings: Setaria faberi, 240 h; for pest or weed control at 125 g/ha: 125 g ai/ha; for pest or weed control at 500 g/ha: 500 g ai/ha
Procedure, shortened: as §1

[3] = system: crabgrass, large (large crabgrass, Digitaria sanguinalis); test: Test A pre-/postemergence: crabgrass, large; settings: Digitaria sanguinalis, 240 h; for pest or weed control at 125 g/ha: 125 g ai/ha; for pest or weed control at 500 g/ha: 500 g ai/ha
Procedure, shortened: as §1

[4] = system: wheat (Triticum aestivum); test: Test A pre-/postemergence: wheat; settings: Triticum aestivum, 240 h; for plant injury at 125 g/ha: 125 g ai/ha; for plant injury at 500 g/ha: 500 g ai/ha
Procedure, shortened: as §1

[5] = system: pigweed (Amaranthus retroflexus); test: Test A pre-/postemergence: pigweed; settings: Amaranthus retroflexus, 240 h; for pest or weed control at 125 g/ha: 125 g ai/ha; for pest or weed control at 500 g/ha: 500 g ai/ha
Procedure, shortened: as §1

[6] = post-emergence, Postemergence, 0 to 100 scale, 0 is no effect, 100 is complete control, read-out: Velvetleaf plant response rating
[7] = post-emergence, Postemergence, visual rating on 0 to 100 scale (0 no effect, 100 complete control), approximately ten days, read-out: Velvetleaf plant response rating
[8] = pre-emergence, Preemergence, 0 to 100 scale (0 no effect, 100 complete control), read-out: Plant response rating, Velvetleaf
[9] = post-emergence, Postemergence, 0 to 100 scale, 0 is no effect, 100 is complete control, read-out: Foxtail, Giant plant response rating
[10] = post-emergence, Postemergence, visual rating on 0 to 100 scale (0 no effect, 100 complete control), approximately ten days, read-out: Foxtail, Giant plant response rating
[11] = pre-emergence, Preemergence, 0 to 100 scale (0 no effect, 100 complete control), read-out: Plant response rating, Foxtail, Giant
[12] = post-emergence, Postemergence, 0 to 100 scale, 0 is no effect, 100 is complete control, read-out: Crabgrass, Large plant response rating
[13] = post-emergence, Postemergence, visual rating on 0 to 100 scale (0 no effect, 100 complete control), approximately ten days, read-out: Crabgrass, Large plant response rating
[14] = pre-emergence, Preemergence, 0 to 100 scale (0 no effect, 100 complete control), read-out: Plant response rating, Crabgrass, Large
[15] = post-emergence, Postemergence, 0 to 100 scale, 0 is no effect, 100 is complete control, read-out: Wheat plant response rating
[16] = post-emergence, Postemergence, visual rating on 0 to 100 scale (0 no effect, 100 complete control), approximately ten days, read-out: Wheat plant response rating
[17] = pre-emergence, Preemergence, 0 to 100 scale (0 no effect, 100 complete control), read-out: Plant response rating, Wheat
[18] = post-emergence, Postemergence, 0 to 100 scale, 0 is no effect, 100 is complete control, read-out: Pigweed plant response rating
[19] = post-emergence, Postemergence, visual rating on 0 to 100 scale (0 no effect, 100 complete control), approximately ten days, read-out: Pigweed plant response rating
[20] = pre-emergence, Preemergence, 0 to 100 scale (0 no effect, 100 complete control), read-out: Plant response rating, Pigweed
[21] = pre-emergence, Preemergence, 0 to 100 scale where 0 is no effect and 100 is complete control, read-out: Plant response rating, Velvetleaf
[22] = pre-emergence, Preemergence, 0 to 100 scale where 0 is no effect and 100 is complete control, read-out: Plant response rating, Foxtail, Giant
[23] = pre-emergence, Preemergence, 0 to 100 scale where 0 is no effect and 100 is complete control, read-out: Plant response rating, Crabgrass, Large
[24] = pre-emergence, Preemergence, 0 to 100 scale where 0 is no effect and 100 is complete control, read-out: Plant response rating, Wheat
[25] = pre-emergence, Preemergence, 0 to 100 scale where 0 is no effect and 100 is complete control, read-out: Plant response rating, Pigweed

SMILES	pest or weed control at 125 g/ha [1, 6]	pest or weed control at 500 g/ha [1, 7]	pest or weed control at 125 g/ha [2, 9]	pest or weed control at 500 g/ha [2, 10]	pest or weed control at 125 g/ha [3, 12]	pest or weed control at 500 g/ha [3, 13]	plant injury at 125 g/ha [4, 15]	plant injury at 500 g/ha [4, 16]	pest or weed control at 125 g/ha [5, 18]	pest or weed control at 500 g/ha [5, 19]	pest or weed control at 125 g/ha [1, 21]	pest or weed control at 500 g/ha [1, 8]	pest or weed control at 125 g/ha [2, 22]	pest or weed control at 500 g/ha [2, 11]	pest or weed control at 125 g/ha [3, 23]	pest or weed control at 500 g/ha [3, 14]	plant injury at 125 g/ha [4, 24]	plant injury at 500 g/ha [4, 17]	pest or weed control at 125 g/ha [5, 25]	pest or weed control at 500 g/ha [5, 20]	also measured
Cc1nn(-c2ccc(C(F)(F)F)cc2)nc1Oc1csc(C(F)(F)F)c1 [Compound 1, 4-methyl-2-[4-(trifluoromethyl)phenyl]-5-[[5-(trifluoromethyl)-3-thienyl]oxy]-2H-1,2,3-triazole]	30%	70%	50%	70%	70%	90%	10%	20%	90%	100%	–	–	–	–	–	–	–	–	–	–	pest or weed control at 125 g/ha [1, 8]: 0%; pest or weed control at 500 g/ha ([1]; pre-emergence, Preemergence, 0 to 100 scale, 0 is no effect, 100 is complete control, read-out: Plant response rating, Velvetleaf): 10%; pest or weed control at 125 g/ha [2, 11]: 60%; pest or weed control at 500 g/ha ([2]; pre-emergence, Preemergence, 0 to 100 scale, 0 is no effect, 100 is complete control, read-out: Plant response rating, Foxtail, Giant): 100%; pest or weed control at 125 g/ha [3, 14]: 70%; pest or weed control at 500 g/ha ([3]; pre-emergence, Preemergence, 0 to 100 scale, 0 is no effect, 100 is complete control, read-out: Plant response rating, Crabgrass, Large): 100%; plant injury at 125 g/ha [4, 17]: 0%; plant injury at 500 g/ha ([4]; pre-emergence, Preemergence, 0 to 100 scale, 0 is no effect, 100 is complete control, read-out: Plant response rating, Wheat): 0%; pest or weed control at 125 g/ha [5, 20]: 60%; pest or weed control at 500 g/ha ([5]; pre-emergence, Preemergence, 0 to 100 scale, 0 is no effect, 100 is complete control, read-out: Plant response rating, Pigweed): 90%
COCc1nn(-c2ccc(C(F)(F)F)cc2)nc1Oc1cccc(OC(F)(F)F)c1 [Compound 115, 4-(methoxymethyl)-5-[3-(trifluoromethoxy)phenoxy]-2-[4-(trifluoromethyl)phenyl]-2H-1,2,3-triazole]	10%	30%	30%	60%	50%	80%	10%	20%	80%	100%	0%	20%	60%	100%	80%	100%	0%	10%	100%	100%	–
FCc1nn(-c2ccc(C(F)(F)F)cc2)nc1Oc1cccc(OC(F)(F)F)c1 [Compound 116, 4-(fluoromethyl)-5-[3-(trifluoromethoxy)phenoxy]-2-[4-(trifluoromethyl)phenyl]-2H-1,2,3-triazole]	20%	50%	30%	50%	40%	80%	10%	10%	50%	100%	0%	20%	60%	90%	70%	100%	0%	10%	50%	100%	–
